Assay results taken from publication PMC2556223 (Journal of biomolecular screening, 2008).
Where two headings read alike, the source gives them in different places.

Tests used:
cells = assay: Quantitative cytotoxicity assay; type: cell-based; settings: for CC50: 24 h, absence of virus, highest concentration assessed 150 μM, averages of two experiments; for SI (CC50/EC50): specificity index, CC50 / EC50 against MV-Alaska
HPIV3 = assay: Dose-response CPE assay, Vero cells; type: cell-based, human parainfluenzavirus type 3; settings: for EC50: read-out: EC50 (HPIV3)
CDV-752 = assay: Dose-response CPE assay, Vero-dogSLAM cells; type: cell-based, canine distemper virus; settings: for EC50: read-out: EC50 (CDV-752)
MV-AII-5 = assay: Dose-response CPE assay against AS-136A-adapted MV variant; settings: read-out: EC50 (MV-AII-5); MV-Alaska variant adapted to grow in presence of RdRp inhibitor AS-136A; highest concentration assessed 37.5 μM
MV-Ibd = assay: Dose-response CPE assay against AS-48-resistant MV strain; settings: for EC50 (MV-Ibd): strain naturally resistant to MV fusion inhibitor AS-48, highest concentration assessed 37.5 μM
MV-Alaska = assay: Dose-response curves based on suppression of viral CPE; type: cell-based, measles virus; settings: for Activity of re-synthesized compound versus original library substance: biotesting of chemically re-synthesized compound, data not shown
[1] = Quantitative cytotoxicity assay; type: cell-based
[2] = target: MV H and F envelope glycoproteins (Measles virus, UniProt P08362+P69353); assay: cell-based
[3] = Vero cells, highest concentration assessed 37.5 μM
[4] = Vero-dogSLAM cells, highest concentration assessed 37.5 μM

Sequence of MV H and F envelope glycoproteins (P08362 whole entry): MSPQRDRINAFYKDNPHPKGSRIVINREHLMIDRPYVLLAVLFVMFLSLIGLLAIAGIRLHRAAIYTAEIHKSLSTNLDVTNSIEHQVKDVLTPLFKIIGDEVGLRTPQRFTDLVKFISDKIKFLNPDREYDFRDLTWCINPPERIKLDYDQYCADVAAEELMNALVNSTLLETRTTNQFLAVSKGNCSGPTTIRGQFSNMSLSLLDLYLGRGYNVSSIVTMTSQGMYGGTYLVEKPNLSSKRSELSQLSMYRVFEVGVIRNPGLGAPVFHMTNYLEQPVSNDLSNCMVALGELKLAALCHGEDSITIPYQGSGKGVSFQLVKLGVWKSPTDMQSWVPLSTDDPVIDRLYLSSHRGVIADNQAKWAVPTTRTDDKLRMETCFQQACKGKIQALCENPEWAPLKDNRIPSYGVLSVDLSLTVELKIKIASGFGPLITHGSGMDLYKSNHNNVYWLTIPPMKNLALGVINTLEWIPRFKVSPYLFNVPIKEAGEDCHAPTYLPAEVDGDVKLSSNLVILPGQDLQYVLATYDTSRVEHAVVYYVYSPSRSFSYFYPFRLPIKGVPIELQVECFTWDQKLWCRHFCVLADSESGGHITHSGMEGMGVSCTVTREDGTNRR
Sequence of MV H and F envelope glycoproteins (P69353 113-550): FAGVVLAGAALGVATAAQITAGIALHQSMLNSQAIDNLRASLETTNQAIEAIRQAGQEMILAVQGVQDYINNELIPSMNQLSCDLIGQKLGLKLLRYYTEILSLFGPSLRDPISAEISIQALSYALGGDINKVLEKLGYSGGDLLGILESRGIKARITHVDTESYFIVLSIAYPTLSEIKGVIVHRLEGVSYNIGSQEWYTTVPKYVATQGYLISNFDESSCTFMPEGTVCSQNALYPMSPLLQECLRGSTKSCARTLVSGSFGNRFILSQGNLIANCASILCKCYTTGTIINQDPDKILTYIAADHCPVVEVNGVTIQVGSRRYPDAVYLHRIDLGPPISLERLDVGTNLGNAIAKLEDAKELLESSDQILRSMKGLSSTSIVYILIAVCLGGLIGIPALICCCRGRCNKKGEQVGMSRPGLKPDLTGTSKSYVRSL
Sequence of MV H and F envelope glycoproteins (P69353 24-112): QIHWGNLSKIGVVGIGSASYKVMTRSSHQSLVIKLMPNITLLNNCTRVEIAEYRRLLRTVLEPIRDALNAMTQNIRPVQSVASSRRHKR

Structure (SMILES)	CC50 (cells) [µM]	SI (CC50/EC50) (cells)	EC50 (HPIV3; [3]) [µM]	EC50 (CDV-752; [4]) [µM]	EC50 (MV-AII-5) [µM]	EC50 (MV-Ibd) (MV-Ibd)	EC50 (HPIV3) (HPIV3; [3])	EC50 (CDV-752) (CDV-752; [4])	other results
CC(=O)/C(C#N)=C1\NC(=O)C(Cc2ccc(C)c(C)c2)S1 (stereo not drawn) [compound 14741996]	> 150	>47	3.9 ± 0.1	4.2 ± 0.1	7.7 ± 0.1	–	–	–	–
CC(=O)Nc1ccc(Nc2cc(C)nc3c(-c4ccccc4)cnn23)cc1 [compound 17505573]	54	14	–	–	1.6 ± 0.1	no activity detected	no activity detected	no activity detected	–
Cc1cccc2c(=O)cc(C)n(Cc3ccccc3)c12 [compound 22415156]	> 150	>42	–	11 ± 0.1	2.4 ± 0.2	–	no activity detected	–	–
C#CCn1c(S(=O)(=O)Cc2ccc(F)cc2)nc(-c2ccccc2)c1-c1ccccc1 [compound 17409378]	26	37	1.7 ± 0.2	–	1.4 ± 0.3	–	–	–	–
O=C(Cc1cccs1)Nc1cc(SCCO)cc([N+](=O)[O-])c1 [compound 22402685]	> 150	>79	–	2.1 ± 0.3	1.6 ± 0.2	no activity detected	no activity detected	–	–
CSc1cccc(NC(=O)Cn2cccc2)c1 [compound 4245209]	–	–	–	31.1	14.3 ± 0.8	no activity detected	no activity detected	–	–
CNC(=O)c1ccc(OCc2ccccc2)c(OC)c1 [compound 4265637]	> 150	>50	–	6.7 ± 0.1	4.7 ± 0.3	no activity detected	no activity detected	–	–
COc1cc(/C=C/C(=O)N2CCOCC2)ccc1OCc1ccccc1 [compound 22415419]	> 150	>33	–	5 ± 0.2	2.2 ± 0.3	no activity detected	no activity detected	–	–
CCN(CC)C(=O)N1c2ccccc2C=Cc2ccccc21 [compound 14740150]	> 150	>34	3 ± 0.1	1.9 ± 0.1	–	–	–	–	–
COc1ccc([N+](=O)[O-])cc1NC(=O)CCc1ccccc1 [compound 17416393]	> 150	>100	–	12.9 ± 0.7	2.9 ± 0.5	no activity detected	no activity detected	–	–
O=C(CSc1nc2ccccc2n1-c1ccccc1)Nc1ncc(Cl)cc1Cl [compound 22407466]	> 150	>71	1 ± 0.1	0.9 ± 0.1	–	–	–	–	–
Cn1c(C(=O)NCc2ccccc2)cc2oc3ccccc3c21 [compound 14735307]	> 150	–	–	–	5.4 ± 1.6	–	no activity detected	no activity detected	–
Cc1ccc(N(Cc2ccc(C(=O)NC3CCCCC3)cc2)S(C)(=O)=O)cc1C [compound 14722514]	~150	214	–	–	3.6 ± 1.6	–	no activity detected	no activity detected	Activity of re-synthesized compound versus original library substance (MV-Alaska): essentially identical to the original substances stored in the library
C=CCN=c1scc(-c2ccccc2)n1/N=C/c1ccccn1 [compound 22406106]	139	116	–	–	–	–	–	–	–
C=CCn1c(SCC(=O)N2CC(=O)Nc3ccccc32)nc2scc(-c3ccccc3)c2c1=O [compound 14743644]	~150	56	–	–	4.6 ± 0.1	–	no activity detected	no activity detected	–
CC1Cc2cc(-c3csc(NC(=O)Cc4cccs4)n3)ccc2N1S(C)(=O)=O (stereo not drawn) [compound 852230]	~150	46	–	–	4.5 ± 0.2	no activity detected	no activity detected	no activity detected	–

Structure (SMILES)	CC50 (cells) [µM]	SI (CC50/EC50) (cells)	EC50 (HPIV3; [3]) [µM]	EC50 (CDV-752; [4]) [µM]	EC50 (MV-AII-5) [µM]	EC50 (MV-Ibd) (MV-Ibd)	EC50 (HPIV3) (HPIV3; [3])	EC50 (CDV-752) (CDV-752; [4])	other results
Cc1cccc(-n2c(SCC(=O)Nc3ncc(Cl)cc3Cl)nc3ccccc32)c1 [compound 22404943]	> 150	>214	0.6 ± 0.1	0.4 ± 0.1	0.5 ± 0.1	–	–	–	–
CCOC(=O)Cn1c(-c2nonc2NC(=O)c2ccccc2F)nc2ccccc21 [compound 7973070]	~150	375	1.9 ± 0.1	1 ± 0.1	2 ± 0.2	–	–	–	–
COc1ccc(-n2c(SC(C)C(=O)Nc3ncc(Cl)cc3Cl)nc3ccccc32)cc1 (stereo not drawn) [compound 22407448]	> 150	–	0.2 ± 0.1	–	0.1	–	–	–	Activity of re-synthesized compound versus original library substance (MV-Alaska): essentially identical to the original substances stored in the library
CC(=O)Nc1ccc(-c2csc(NC(=O)CCCc3cccs3)n2)cc1 [compound 22408576]	> 150	>65	–	–	2 ± 0.1	–	no activity detected	no activity detected	–
CSc1ccccc1NC(=O)Cn1c(-c2cscn2)nc2ccccc21 [compound 4261934]	> 150	>63	–	–	3.9 ± 0.1	–	no activity detected	no activity detected	–
Cc1ccc2[nH]c(=O)c(N3CCOCC3)c(-c3ccccc3)c2c1 [compound 4259333]	118	36	–	–	4.3 ± 0.3	–	no activity detected	no activity detected	–
CS(=O)(=O)N1CCc2cc(-c3csc(NC(=O)Cc4ccccc4)n3)ccc21 [compound 14723513]	> 150	>41	–	26.8 ± 8.7	3.6 ± 0.2	no activity detected	no activity detected	–	–
COc1cc(/C=C/C(=O)NC(C)C)ccc1OCc1ccccc1 [compound 22415706]	–	–	–	12.9	4.1	no activity detected	no activity detected	–	–
O=C(/C=C/c1cccs1)Nc1cccc(NC(=O)/C=C/c2cccs2)n1 [compound 17433375]	70	19	–	–	3.2 ± 0.1	–	no activity detected	no activity detected	–
COc1cccc(CNC(=O)c2cc3oc4ccccc4c3n2C)c1OC [compound 4242806]	147	105	2 ± 0.1	2.1 ± 0.1	2.1 ± 0.1	–	–	–	–
CSc1nnc2c3ccccc3n(CCc3ccccc3)c2n1 [compound 7976354]	> 150	>33	3.5 ± 0.1	0.9 ± 0.1	1 ± 0.1	–	–	–	–
CCN=c1scc(-c2ccccc2)n1/N=C/c1ccccn1 [compound 22406746]	~150	37	2 ± 0.1	2.3 ± 0.2	–	–	–	–	–
O=C(Cc1cccs1)Nc1nc2c(s1)CCCC2 [compound 4256670]	–	–	–	–	–	–	–	–	CC50 at 24 h [1]: ~150 µM; selectivity ratio [1]: 68; EC50 (MV-Ibd; Measles morbillivirus, read-out: EC50 (MV-Ibd)): 26.6 ± 9.3 µM; EC50 (HPIV3; Human respirovirus 3, Vero, in Homo sapiens): 5.8 ± 0.6 µM; EC50 (CDV-752; canine distemper virus): 3.9 ± 0.2 µM; EC50 (MV-Alaska; Measles morbillivirus, 96 h, read-out: EC50 (MV-Alaska)): 2.2 ± 0.3 µM; EC50 [2]: 22 µM; Suppression of reporter expression ([2]; at 5 μM): did not suppress reporter expression at all
CC(=O)Nc1ccc(-c2csc(NC(=O)C3CCN(S(=O)(=O)c4cccs4)CC3)n2)cc1 [compound 22410899]	> 150	>39	–	–	3.8 ± 0.3	–	no activity detected	no activity detected	–
CS(=O)(=O)N1CCc2cc(-c3csc(NC(=O)Cc4cccs4)n3)ccc21 [compound 846635]	~150	56	–	–	3.7 ± 0.1	no activity detected	no activity detected	no activity detected	–
